ChEMBL document CHEMBL1152509, “ssDNA aptamers that recognize diclofenac and 2-anilinophenylacetic acid” (Bioorg Med Chem, 2009)
Activity calls are given as the source filed them. No cut-off for these calls is given here.

What was measured:
Type in all cases: nucleic-acid assay
[1] = system: Nucleic Acid; assay: Binding affinity to D3 ssDNA aptamer
[2] = system: Nucleic Acid; assay: Binding affinity to D16 ssDNA aptamer
[3] = system: Nucleic Acid; assay: Binding affinity to D22 ssDNA aptamer
[4] = molecular target: Nucleic Acid; assay: Binding affinity to D10/DA24 ssDNA aptamer

O=C(O)Cc1ccccc1Nc1ccccc1
Activity [1]: inactive
Activity [2]: Active
Activity [3]: Active

O=C(O)Cc1ccccc1Nc1c(Cl)cccc1Cl [DICLOFENAC]
Kd [1]: 42.7 nM
Kd [2]: 149 nM
Kd [3]: 166 nM
Kd [4]: 101 nM
